Test results published in patent publication US20140248347A1 (PFIZER INC., priority 2011, published 2014).

Assay: Susceptibility of axitinib API to degradation found during drug development
Assay type: physicochemical
Conditions: active pharmaceutical ingredient

## CNC(=O)c1ccccc1Sc1ccc2c(/C=C/c3ccccn3)n[nH]c2c1 [axitinib, N-methyl-2-[3-((E)-2-pyridin-2-yl-vinyl)-1H-indazol-6-ylsulfanyl]-benzamide]
  susceptibility to degradation, including photodegradation: highly susceptible to degradation, including photodegradation
